Results on two compounds are retold here after patent publication US20240173324A1, “COMBINATORY THERAPY FOR PREVENTING, INHIBITING, TREATING, OR REDUCING ANEURYSMS” (The Regents of the University of California, priority 2021, published 2024).

Each structure is given as a SMILES string. Where “and” joins values, the source holds several entries; their conditions need not be identical. Equal entries are not always repeated.

One test has as its system AAA formation. As to conditions: both low and high dose of Nifedipine alone; earlier study; cited from earlier work.
Test [1] has as its system Ang II-infused apoE null mice. As to conditions: oral FA administration, previously observed; cited from earlier work.
The subject of test [2] is Ang II infused apoE null mice. The test is described as follows: Verhoeff-Van Gieson (VVG) staining, medial elastin degradation. It is filed as in vivo. As to conditions: FA 15 mg/kg/day oral.
Protocol: To assess medial elastin degradation, VVG staining was performed using aortic sections from all experimental groups.
Paraffin embedded aortic sections were deparaffinized by sequential washes in xylene (2x), descending ethanol from 100%, 90%, 75% to 50%, and distilled water. Sections were stained in Verhoeff s solution for 70 min, followed by differentiation in 2% ferric chloride for 90 seconds. Sections were incubated with 5% sodium thiosulfate for 60 seconds, followed by counterstaining with Van Gieson's solution. Sections were then subjected to dehydration with 95% and 100% alcohol, and finally washed in xylene. After drying, sections were mounted with Permount mounting media (SP15-100, Thermo-Fisher Scientific, Pittsburgh, PA, USA), and images captured by a Nikon TE2000-U fluorescent microscope.
The test system of test [3] is Fbnic1^C1039G/+ Marfan Syndrome (MFS) mice. Conditions: FA diet; cited from earlier work.
Test [4] has as its system Ang II infused apoE null mice. As to the kind of experiment: Incidence of AAA in Ang II infused apoE null mice (ultrasound and post-mortem inspection). Format: in vivo.
Description: The use of animals and experimental procedures were approved by the Institutional Animal Care and Usage Committee (IACUC) at the University of California Los Angeles (UCLA). Breeders of apoE null mice were purchased from Jackson Labs (Bar Harbor, ME, Strain B6.129P2-ApoEtmlUnc/J), and bred in house. Animals were kept in ventilated cages, with free access to water and standard chow under the standard care of Division of Laboratory Animal Medicine (DLAM) staff. Male apoE null mice of 6-8 months old were used for experimentation.
The animals receiving Ang II infusion were anesthetized in an isoflurane chamber with 5% isoflurane, and then moved to a nose cone with sustained supply of 1.5-2% isoflurane to maintain the anesthetic state. The back area between the shoulder blades was cleaned of hair and disinfected. Then a small incision was made at the cleaned site; the osmotic minipump (Alzet, model 2004) containing Ang II (1000 ng/kg/min, Sigma-Millipore, St. Louis, MO, USA) was subcutaneously implanted into the mice. The surgical wounds were closed with surgical staples, and then animals were allowed to recover in a heated cage.
At the end of the study period of 4 weeks, animals were euthanized with CO2. The aortas were rapidly removed from the body, rinsed with ice cold Krebs/HEPES buffer, and cleaned of connective tissue and fat. The incidence of AAA was determined by ultrasound assessment of abdominal aortic expansion as described above, and by direct inspection of the abdominal aortas post-mortem.
The next test relates to aortic H4B. As to the kind of experiment: HPLC determination of aortic H4B bioavailability. As to conditions: FA 15 mg/kg/day oral. It is filed as in vivo, mice. Here is the method: After centrifugation, 10 μl of the supernatant was injected into a HPLC system equipped with a fluorescent detector (Schimadzu America Inc, Carlsbad, CA, USA). Excitation and emission wavelengths of 350 nm and 450 nm were used to measure H4B levels.

The test system of test [5] is Ang II infused hph-1 mice. As to conditions: oral FA administration; cited from earlier work.
The subject of test [6] is total superoxide production in aortas. As to the kind of experiment: Electron spin resonance determination of total aortic superoxide production. It is filed as in vivo, mice. As to conditions: FA 15 mg/kg/day oral; ESR.
Description: Therefore, changes in aortic total superoxide production and eNOS uncoupling activity from all treatment groups is examined herein. Freshly prepared aortic lysates were subjected to electron spin resonance (ESR) determination of superoxide production with and without L-NAME, an inhibitor of NOS. If eNOS is functional and coupled, its inhibition by L-NAME will increase the measured superoxide, as eNOS is producing NO to scavenge superoxide. However, if eNOS is dysfunctional, uncoupled and producing superoxide, its inhibition with L-NAME will lead to a decrease in measured superoxide.
Aortic superoxide production was determined by electron spin resonance (ESR). In brief, freshly isolated aortas were homogenized in lysis buffer containing 1:100 protease inhibitor cocktail (MilliporeSigma, P8340), centrifuged at 12,000 rpm for 15 min, and protein supernatant collected. After determination of protein concentration using a protein assay kit (Bio-Rad), five μg of the protein was loaded into ice-cold and nitrogen bubbled modified Krebs/HEPES buffer (KHB, in mmol/L: NaCl 99; KCl 4.7; MgSO41.2; KH2PO4 1.0; CaCl2 1.9; NaHCO3 25; glucose 11.1, NaHEPES 20) containing diethyldithiocarbamic acid (5 mmol/L), deferoxamine (25 mmol/L), and the superoxide specific spin trap methoxycarbonyl-2,2,5,5-tetramethylpyrrolidine (CMH, 500 μmol/L, Axxora, San Diego, CA, USA). […]
The subject of test [7] is Ang II infused apoE null mice. As to the kind of experiment: Ultrasound detection of abdominal aortic size (enlargement of abdominal aortas). It is filed as in vivo. As to conditions: FA 15 mg/kg/day oral; weekly ultrasound over 4 weeks; vs. apoE+Ang II. The procedure: The back area between the shoulder blades was cleaned of hair and disinfected. Then a small incision was made at the cleaned site; the osmotic minipump (Alzet, model 2004) containing Ang II (1000 ng/kg/min, Sigma-Millipore, St. Louis, MO, USA) was subcutaneously implanted into the mice. The surgical wounds were closed with surgical staples, and then animals were allowed to recover in a heated cage. […] The enlargement of abdominal aortas in various experimental groups was monitored using ultrasound. Animals were anesthetized with isoflurane and placed on a temperature-controlled table. Isoflurane levels were adjusted throughout the experiment to maintain heart rate between 400 and 500 bpm while keeping the animal sufficiently anesthetized. Hair was removed from the abdomen using a hair removal cream, and preheated ultrasound transmission gel was applied onto the abdomen area. An ultrasound probe was placed on the gel to visualize aorta transversely (Vevo 2100, MS400, 30 MHz. FUJIFILM VisualSonics, Inc., Toronto, Ontario, Canada). The aorta was identified using Doppler measurement for the presence of pulsatile flow.

The test system of test [8] is Ang II infused apoE null mice. As to the kind of experiment: H&E staining of aortic sections, vascular remodeling. Conditions: FA 15 mg/kg/day oral. It is filed as in vivo.
Description: To examine the extent of the vascular remodeling that occurred during AAA in the presence of various treatments, freshly isolated aortas were embedded in paraffin, sectioned and stained with hematoxylin-eosin (H&E).
At the end of the study period of 4 weeks, animals were euthanized with CO2. The aortas were rapidly removed from the body, rinsed with ice cold Krebs/HEPES buffer, and cleaned of connective tissue and fat. […] For histological analyses, small sections (5 mm) of the abdominal aortas of the suprarenal region were removed and fixed in 4% paraformaldehyde overnight, followed by incubation for 24 hours in 10% sucrose, and then embedded in paraffin. In the case of AAA, a center section of the AAA was used for these analyses. Sections were sliced at 5μm at UCLA Pathology Core, and subjected to hematoxylin-eosin (H&E) staining following standard protocol.

In the case of `COC(=O)C1=C(C)NC(C)=C(C(=O)OC)C1c1ccccc1[N+](=O)[O-]` [Nifedipine], in the test with AAA formation, the AAA formation result is given as “able to attenuate AAA formation”.
For the compound `Nc1nc2ncc(CNc3ccc(C(=O)N[C@@H](CCC(=O)O)C(=O)O)cc3)nc2c(=O)[nH]1` [FA, folic acid], the aneurysm formation entry in test [1] is listed as “abrogated aneurysm formation”. The “elastin degradation featured by flattening and breakdown” value in test [2] is “significantly attenuated”. In test [3], the “formation of TAA and AAA” value is “attenuated formation of TAA and AAA”. The “incidence of AAA” value in test [4] (FA 15 mg/kg/day oral in chow, 4 weeks Ang II infusion, Ang II alone 85.71%) was determined as 18.75%. Further, the “numbers of animals developed AAA and animals examined” value in test [4] (FA 15 mg/kg/day, b210 developed out of examined, b50 examined/developed) was 6 out of 32 and 32/6. Further, the “Ang II induced H4B deficiency” value with aortic H4B is “significantly abrogated”. The AAA formation entry in [5] is on record as “markedly attenuated”. Moreover, in test [6], the “total superoxide production in aortas” value is listed as “markedly abrogated”. In addition, the “enlargement of abdominal aortas” value in test [7] was “significantly attenuated”. In addition, the “vascular remodeling featured by elastic degradation and adventitial hypertrophy” value in [8] is on record as “markedly attenuated”.
